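Five concentrations, 48 hours, 96-well plates. TGI denotes the concentration required for complete inhibition of growth.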
Experiments:
Test in all cases: NCI anticancer screen, dose series, 48 h
786-0 renal = tested on: 786-0 renal
CAKI-1 renal = tested on: CAKI-1 renal
EKVX NSCLC = tested on: EKVX NSCLC
HCT-116 colon = tested on: HCT-116 colon
HCT-15 colon = tested on: HCT-15 colon
HL-60(TB) leukemia = tested on: HL-60(TB) leukemia
HOP-62 NSCLC = tested on: HOP-62 NSCLC
M14 melanoma = tested on: M14 melanoma
MDA-MB-435 = tested on: MDA-MB-435
NCI-H226 lung = tested on: NCI-H226 lung
PC-3 prostate = tested on: PC-3 prostate
SF-268 CNS = tested on: SF-268 CNS
SF-539 CNS = tested on: SF-539 CNS
SK-MEL-2 melanoma = tested on: SK-MEL-2 melanoma
SK-OV-3 ovarian = tested on: SK-OV-3 ovarian
SNB-19 CNS = tested on: SNB-19 CNS
UACC-257 melanoma = tested on: UACC-257 melanoma
UACC-62 melanoma = tested on: UACC-62 melanoma
UO-31 renal = tested on: UO-31 renal

## c1cc(CSc2ncnc3nc[nH]c23)ccn1
786-0 renal
  TGI: > 100 µM
CAKI-1 renal
  TGI: > 100 µM
EKVX NSCLC
  TGI: > 100 µM
HCT-116 colon
  TGI: > 100 µM
HCT-15 colon
  TGI: > 100 µM
HL-60(TB) leukemia
  TGI: > 100 µM
HOP-62 NSCLC
  TGI: > 100 µM
M14 melanoma
  TGI: > 100 µM
MDA-MB-435
  TGI: > 100 µM
NCI-H226 lung
  TGI: > 100 µM
PC-3 prostate
  TGI: > 100 µM
SF-268 CNS
  TGI: > 100 µM
SF-539 CNS
  TGI: > 100 µM
SK-MEL-2 melanoma
  TGI: > 100 µM
SK-OV-3 ovarian
  TGI: > 100 µM
SNB-19 CNS
  TGI: > 100 µM
UACC-257 melanoma
  TGI: > 100 µM
UACC-62 melanoma
  TGI: > 100 µM
UO-31 renal
  TGI: > 100 µM

## C[C@@H]1CC[C@@]2(C)[C@H](C)/C(=C\COC(=O)/C=C/c3ccc(O)c(O)c3)CC[C@@]12C
786-0 renal
  TGI: 17.6 µM
CAKI-1 renal
  TGI: 15 µM
EKVX NSCLC
  TGI: 30.8 µM
HCT-116 colon
  TGI: 14 µM
HCT-15 colon
  TGI: 16.1 µM
HL-60(TB) leukemia
  TGI: 13.4 µM
HOP-62 NSCLC
  TGI: 28.8 µM
M14 melanoma
  TGI: 26.1 µM
MDA-MB-435
  TGI: 11.6 µM
NCI-H226 lung
  TGI: 20.8 µM
PC-3 prostate
  TGI: 17.4 µM
SF-268 CNS
  TGI: 23.5 µM
SF-539 CNS
  TGI: 16.2 µM
SK-MEL-2 melanoma
  TGI: 25.4 µM
SK-OV-3 ovarian
  TGI: 26.4 µM
SNB-19 CNS
  TGI: 27.8 µM
UACC-257 melanoma
  TGI: 24.1 µM
UACC-62 melanoma
  TGI: 22.1 µM
UO-31 renal
  TGI: 28 µM

## O=C(/C=C/c1cccc(Br)c1)N1CCN(CCOC(c2ccccc2)c2ccccc2)CC1
786-0 renal
  TGI: > 100 µM
CAKI-1 renal
  TGI: > 100 µM
EKVX NSCLC
  TGI: > 100 µM
HCT-116 colon
  TGI: > 100 µM
HCT-15 colon
  TGI: > 100 µM
HL-60(TB) leukemia
  TGI: 46.6 µM
HOP-62 NSCLC
  TGI: > 100 µM
M14 melanoma
  TGI: > 100 µM
MDA-MB-435
  TGI: > 100 µM
NCI-H226 lung
  TGI: > 100 µM
PC-3 prostate
  TGI: > 100 µM
SF-268 CNS
  TGI: > 100 µM
SF-539 CNS
  TGI: 39.1 µM
SK-MEL-2 melanoma
  TGI: > 100 µM
SK-OV-3 ovarian
  TGI: > 100 µM
SNB-19 CNS
  TGI: > 100 µM
UACC-257 melanoma
  TGI: > 100 µM
UACC-62 melanoma
  TGI: > 100 µM
UO-31 renal
  TGI: 65.8 µM

## CC(C)c1c(O[Si](C(C)C)(C(C)C)C(C)C)cc2c(c1O)CC[C@H]1C(C)(C)CCC[C@]21C
786-0 renal
  TGI: > 100 µM
CAKI-1 renal
  TGI: > 100 µM
EKVX NSCLC
  TGI: > 100 µM
HCT-116 colon
  TGI: > 100 µM
HCT-15 colon
  TGI: > 100 µM
HL-60(TB) leukemia
  TGI: 60.4 µM
HOP-62 NSCLC
  TGI: > 100 µM
M14 melanoma
  TGI: > 100 µM
MDA-MB-435
  TGI: > 100 µM
NCI-H226 lung
  TGI: > 100 µM
PC-3 prostate
  TGI: > 100 µM
SF-268 CNS
  TGI: > 100 µM
SF-539 CNS
  TGI: > 100 µM
SK-MEL-2 melanoma
  TGI: > 100 µM
SK-OV-3 ovarian
  TGI: > 100 µM
SNB-19 CNS
  TGI: > 100 µM
UACC-257 melanoma
  TGI: > 100 µM
UACC-62 melanoma
  TGI: > 100 µM
UO-31 renal
  TGI: > 100 µM

## CC(C)C(/C=C/c1ccc(Cl)cc1)=N\NC(=O)N/N=C(/C=C/c1ccc(Cl)cc1)C(C)C
786-0 renal
  TGI: 33.5 µM
CAKI-1 renal
  TGI: 35.6 µM
EKVX NSCLC
  TGI: 50.5 µM
HCT-116 colon
  TGI: 39 µM
HCT-15 colon
  TGI: > 100 µM
HL-60(TB) leukemia
  TGI: > 100 µM
HOP-62 NSCLC
  TGI: 47.3 µM
M14 melanoma
  TGI: 60 µM
MDA-MB-435
  TGI: 87.6 µM
NCI-H226 lung
  TGI: 54.9 µM
PC-3 prostate
  TGI: > 100 µM
SF-268 CNS
  TGI: 41.3 µM
SF-539 CNS
  TGI: 31.2 µM
SK-MEL-2 melanoma
  TGI: 59.8 µM
SK-OV-3 ovarian
  TGI: 93.1 µM
SNB-19 CNS
  TGI: 38.8 µM
UACC-257 melanoma
  TGI: > 100 µM
UACC-62 melanoma
  TGI: > 100 µM
UO-31 renal
  TGI: > 100 µM

## NC1NCCC(=O)N1CCc1c[nH]c2ccccc12 (configuration not stated)
786-0 renal
  TGI: 37.6 µM
CAKI-1 renal
  TGI: 94.4 µM
EKVX NSCLC
  TGI: 75.5 µM
HCT-116 colon
  TGI: 26.5 µM
HCT-15 colon
  TGI: 65 µM
HL-60(TB) leukemia
  TGI: 44.7 µM
HOP-62 NSCLC
  TGI: 43.2 µM
M14 melanoma
  TGI: 33.3 µM
MDA-MB-435
  TGI: 30.7 µM
NCI-H226 lung
  TGI: 66.3 µM
PC-3 prostate
  TGI: 44.1 µM
SF-268 CNS
  TGI: 46.4 µM
SF-539 CNS
  TGI: 31.5 µM
SK-MEL-2 melanoma
  TGI: 35.5 µM
SK-OV-3 ovarian
  TGI: > 100 µM
SNB-19 CNS
  TGI: > 100 µM
UACC-257 melanoma
  TGI: 32.1 µM
UACC-62 melanoma
  TGI: 37.6 µM
UO-31 renal
  TGI: > 100 µM

## CCCCCCCCCCCCCCCC(=O)OC1C(O)C(O)C(O)C(O)C12CO2 (configuration not stated)
786-0 renal
  TGI: 41.9 µM
CAKI-1 renal
  TGI: 29.8 µM
EKVX NSCLC
  TGI: 61.4 µM
HCT-116 colon
  TGI: > 100 µM
HCT-15 colon
  TGI: 63.5 µM
HL-60(TB) leukemia
  TGI: 45.7 µM
HOP-62 NSCLC
  TGI: > 100 µM
M14 melanoma
  TGI: > 100 µM
MDA-MB-435
  TGI: > 100 µM
NCI-H226 lung
  TGI: > 100 µM
PC-3 prostate
  TGI: 89.7 µM
SF-268 CNS
  TGI: > 100 µM
SF-539 CNS
  TGI: 63.9 µM
SK-MEL-2 melanoma
  TGI: > 100 µM
SK-OV-3 ovarian
  TGI: > 100 µM
SNB-19 CNS
  TGI: > 100 µM
UACC-257 melanoma
  TGI: > 100 µM
UACC-62 melanoma
  TGI: > 100 µM
UO-31 renal
  TGI: > 100 µM

## COc1ccc(/C=C/C(=O)CCN2CCN(CCC(=O)/C=C/c3ccc(OC)cc3)CC2)cc1
786-0 renal
  TGI: 10.9 µM
CAKI-1 renal
  TGI: 26.3 µM
EKVX NSCLC
  TGI: 28.2 µM
HCT-116 colon
  TGI: 11.1 µM
HCT-15 colon
  TGI: 22.3 µM
HL-60(TB) leukemia
  TGI: > 100 µM
HOP-62 NSCLC
  TGI: 49.7 µM
M14 melanoma
  TGI: 32.5 µM
MDA-MB-435
  TGI: 24.6 µM
NCI-H226 lung
  TGI: 52.8 µM
PC-3 prostate
  TGI: 25.5 µM
SF-268 CNS
  TGI: 41.7 µM
SF-539 CNS
  TGI: 19.1 µM
SK-MEL-2 melanoma
  TGI: 42 µM
SK-OV-3 ovarian
  TGI: 24.1 µM
SNB-19 CNS
  TGI: > 100 µM
UACC-257 melanoma
  TGI: 29.1 µM
UACC-62 melanoma
  TGI: 27.2 µM
UO-31 renal
  TGI: 27.7 µM

## c1ccc2c(c1)-c1ccccc1C2NC1=NCCO1
786-0 renal
  TGI: 84.5 µM
CAKI-1 renal
  TGI: 80.9 µM
EKVX NSCLC
  TGI: > 100 µM
HCT-116 colon
  TGI: 32.1 µM
HCT-15 colon
  TGI: 21.3 µM
HL-60(TB) leukemia
  TGI: 48.5 µM
HOP-62 NSCLC
  TGI: 46.5 µM
M14 melanoma
  TGI: 32.5 µM
MDA-MB-435
  TGI: 53 µM
NCI-H226 lung
  TGI: 56.3 µM
PC-3 prostate
  TGI: 95.3 µM
SF-268 CNS
  TGI: > 100 µM
SF-539 CNS
  TGI: 49.6 µM
SK-MEL-2 melanoma
  TGI: 39.5 µM
SK-OV-3 ovarian
  TGI: > 100 µM
SNB-19 CNS
  TGI: > 100 µM
UACC-62 melanoma
  TGI: 38.9 µM
UO-31 renal
  TGI: 50.7 µM

## CC(C)C(=O)/C=C/c1c(Cl)cccc1Cl
786-0 renal
  TGI: 20.1 µM
CAKI-1 renal
  TGI: 13.8 µM
EKVX NSCLC
  TGI: 26 µM
HCT-116 colon
  TGI: 5.83 µM
HCT-15 colon
  TGI: 17.8 µM
HL-60(TB) leukemia
  TGI: > 100 µM
HOP-62 NSCLC
  TGI: 17.7 µM
M14 melanoma
  TGI: 6.69 µM
MDA-MB-435
  TGI: 14.7 µM
NCI-H226 lung
  TGI: 8.01 µM
PC-3 prostate
  TGI: 24.4 µM
SF-268 CNS
  TGI: 10.5 µM
SF-539 CNS
  TGI: 7.44 µM
SK-MEL-2 melanoma
  TGI: 7.99 µM
SK-OV-3 ovarian
  TGI: 9.27 µM
SNB-19 CNS
  TGI: 22.6 µM
UACC-257 melanoma
  TGI: 20.5 µM
UACC-62 melanoma
  TGI: 19.1 µM
UO-31 renal
  TGI: 16 µM

## COC(=O)C1Cc2cc3c(cc2C1)CCC3
786-0 renal
  TGI: > 100 µM
CAKI-1 renal
  TGI: > 100 µM
EKVX NSCLC
  TGI: > 100 µM
HCT-116 colon
  TGI: > 100 µM
HCT-15 colon
  TGI: > 100 µM
HL-60(TB) leukemia
  TGI: > 100 µM
HOP-62 NSCLC
  TGI: > 100 µM
M14 melanoma
  TGI: > 100 µM
MDA-MB-435
  TGI: > 100 µM
NCI-H226 lung
  TGI: > 100 µM
PC-3 prostate
  TGI: > 100 µM
SF-268 CNS
  TGI: > 100 µM
SF-539 CNS
  TGI: > 100 µM
SK-MEL-2 melanoma
  TGI: > 100 µM
SK-OV-3 ovarian
  TGI: > 100 µM
SNB-19 CNS
  TGI: > 100 µM
UACC-257 melanoma
  TGI: > 100 µM
UACC-62 melanoma
  TGI: > 100 µM
UO-31 renal
  TGI: > 100 µM

## O=C(NC(OCc1ccccc1)(C(F)(F)F)C(F)(F)F)OCc1ccccc1
786-0 renal
  TGI: 30.1 µM
CAKI-1 renal
  TGI: 27.5 µM
EKVX NSCLC
  TGI: 28.7 µM
HCT-116 colon
  TGI: 29.9 µM
HCT-15 colon
  TGI: 26.7 µM
HL-60(TB) leukemia
  TGI: 40.8 µM
HOP-62 NSCLC
  TGI: 28.4 µM
M14 melanoma
  TGI: 33 µM
MDA-MB-435
  TGI: 31 µM
NCI-H226 lung
  TGI: 27.7 µM
PC-3 prostate
  TGI: 26.7 µM
SF-268 CNS
  TGI: 32.2 µM
SF-539 CNS
  TGI: 31.1 µM
SK-MEL-2 melanoma
  TGI: 28.7 µM
SK-OV-3 ovarian
  TGI: 31.3 µM
SNB-19 CNS
  TGI: 29.2 µM
UACC-257 melanoma
  TGI: 27.3 µM
UACC-62 melanoma
  TGI: 27 µM
UO-31 renal
  TGI: 23.3 µM

Reference: PubChem BioAssay (NCI)
